From patent US20150056702A1, “METHOD AND KIT FOR CULTURING STEM CELLS” (China Medical University, priority 2013, published 2015)

Tested on: ES cells
Test: DNA microarray analysis of ES cells
Format: cell-based, mouse
Conditions: for Amino acid metabolism: % of genes regulated / Amino acid metabolism: D, number of down-regulated genes / Amino acid metabolism: I, number of up-regulated genes / Amino acid metabolism: No. (regulated genes/genes of function) / Apoptosis: % of genes regulated / Apoptosis: D, number of down-regulated genes / Apoptosis: I, number of up-regulated genes / Apoptosis: No. (regulated genes/genes of function) / Calcium signaling pathway: % of genes regulated / Calcium signaling pathway: D, number of down-regulated genes / Calcium signaling pathway: I, number of up-regulated genes / Calcium signaling pathway: No. (regulated genes/genes of pathway) / Cell adhesion molecules: % of genes regulated / Cell adhesion molecules: D, number of down-regulated genes / Cell adhesion molecules: I, number of up-regulated genes / Cell adhesion molecules: No. (regulated genes/genes of function) / Cell communication: % of genes regulated / Cell communication: D, number of down-regulated genes / Cell communication: I, number of up-regulated genes / Cell communication: No. (regulated genes/genes of function) / Cell cycle: % of genes regulated / Cell cycle: D, number of down-regulated genes / Cell cycle: I, number of up-regulated genes / Cell cycle: No. (regulated genes/genes of function) / ECM-receptor interaction: % of genes regulated / ECM-receptor interaction: D, number of down-regulated genes / ECM-receptor interaction: I, number of up-regulated genes / ECM-receptor interaction: No. (regulated genes/genes of pathway) / Insulin signaling pathway: % of genes regulated / Insulin signaling pathway: D, number of down-regulated genes / Insulin signaling pathway: I, number of up-regulated genes / Insulin signaling pathway: No. (regulated genes/genes of pathway) / JAK-STAT signaling pathway: % of genes regulated / JAK-STAT signaling pathway: D, number of down-regulated genes / JAK-STAT signaling pathway: I, number of up-regulated genes / JAK-STAT signaling pathway: No. (regulated genes/genes of pathway) / Lipid metabolism: % of genes regulated / Lipid metabolism: D, number of down-regulated genes / Lipid metabolism: I, number of up-regulated genes / Lipid metabolism: No. (regulated genes/genes of function) / MAPK signaling: % of genes regulated / MAPK signaling: D, number of down-regulated genes / MAPK signaling: I, number of up-regulated genes / MAPK signaling: No. (regulated genes/genes of pathway) / PPAR signaling pathway: % of genes regulated / PPAR signaling pathway: D, number of down-regulated genes / PPAR signaling pathway: I, number of up-regulated genes / PPAR signaling pathway: No. (regulated genes/genes of pathway) / TGF-β signaling pathway: % of genes regulated / TGF-β signaling pathway: D, number of down-regulated genes / TGF-β signaling pathway: I, number of up-regulated genes / TGF-β signaling pathway: No. (regulated genes/genes of pathway) / VEGF signaling pathway: % of genes regulated / VEGF signaling pathway: D, number of down-regulated genes / VEGF signaling pathway: I, number of up-regulated genes / VEGF signaling pathway: No. (regulated genes/genes of pathway) / Wnt signaling pathway: % of genes regulated / Wnt signaling pathway: D, number of down-regulated genes / Wnt signaling pathway: I, number of up-regulated genes / Wnt signaling pathway: No. (regulated genes/genes of pathway) / focal adhesion: % of genes regulated / focal adhesion: D, number of down-regulated genes / focal adhesion: I, number of up-regulated genes / focal adhesion: No. (regulated genes/genes of function) / tight junction: % of genes regulated / tight junction: D, number of down-regulated genes / tight junction: I, number of up-regulated genes / tight junction: No. (regulated genes/genes of function): ES cells, 24 hours
Description: The DNA microarray analysis was used to determine whether the gene expression profiles in various pathways in cells will be affected when the cells were cultured by a BP-containing medium.
An experimental group medium (BP10 or BP 40), a LIF-containing medium (without BP), and a control group medium (without BP) were used respectively in a 6-well culture dish to culture ES cells with an initial density of 1×10^4 per well for 24 hours. Next, performing total RNA extraction and the obtained RNA was labeled with Cy3. Samples were hybridized to Agilent Mouse G3 Whole Genome Oligo 86×60K microarrays (Agilent) according to the manufacturer's instructions. Arrays were scanned with a Microarray Scanner System and data was analyzed by using a GeneSpring GX software (Agilent).
According to the related research at present, the Jak-Stat signaling pathway is the most relevant in terms of stem cell self-renewal and pluripotency maintenance.

[1] = BP10 medium (about 10 μg BP/ml)
[2] = BP40 medium (about 40 μg BP/ml)

CCCC=C1OC(=O)c2ccccc21 [BP, n-butylidenephthalide]
Amino acid metabolism: % of genes regulated [1]: 4.3%
Amino acid metabolism: D, number of down-regulated genes [1]: 1
Amino acid metabolism: I, number of up-regulated genes [1]: 0
Amino acid metabolism: No. (regulated genes/genes of function) [1]: 1/23
Apoptosis: % of genes regulated [1]: 11.7%
Apoptosis: D, number of down-regulated genes [1]: 8
Apoptosis: I, number of up-regulated genes [1]: 3
Apoptosis: No. (regulated genes/genes of function) [1]: 11/94
Calcium signaling pathway: % of genes regulated [1]: 21.9%
Calcium signaling pathway: D, number of down-regulated genes [1]: 28
Calcium signaling pathway: I, number of up-regulated genes [1]: 4
Calcium signaling pathway: No. (regulated genes/genes of pathway) [1]: 32/146
Cell adhesion molecules: % of genes regulated [1]: 22%
Cell adhesion molecules: D, number of down-regulated genes [1]: 20
Cell adhesion molecules: I, number of up-regulated genes [1]: 13
Cell adhesion molecules: No. (regulated genes/genes of function) [1]: 33/150
Cell communication: % of genes regulated [1]: 21.7%
Cell communication: D, number of down-regulated genes [1]: 17
Cell communication: I, number of up-regulated genes [1]: 3
Cell communication: No. (regulated genes/genes of function) [1]: 20/92
Cell cycle: % of genes regulated [1]: 2.5%
Cell cycle: D, number of down-regulated genes [1]: 4
Cell cycle: I, number of up-regulated genes [1]: 0
Cell cycle: No. (regulated genes/genes of function) [1]: 4/163
ECM-receptor interaction: % of genes regulated [1]: 28.4%
ECM-receptor interaction: D, number of down-regulated genes [1]: 18
ECM-receptor interaction: I, number of up-regulated genes [1]: 3
ECM-receptor interaction: No. (regulated genes/genes of pathway) [1]: 21/74
Insulin signaling pathway: % of genes regulated [1]: 9.8%
Insulin signaling pathway: D, number of down-regulated genes [1]: 7
Insulin signaling pathway: I, number of up-regulated genes [1]: 3
Insulin signaling pathway: No. (regulated genes/genes of pathway) [1]: 10/102
JAK-STAT signaling pathway: % of genes regulated [1]: 27.9%
JAK-STAT signaling pathway: D, number of down-regulated genes [1]: 30
JAK-STAT signaling pathway: I, number of up-regulated genes [1]: 9
JAK-STAT signaling pathway: No. (regulated genes/genes of pathway) [1]: 39/140
Lipid metabolism: % of genes regulated [1]: 16.5%
Lipid metabolism: D, number of down-regulated genes [1]: 15
Lipid metabolism: I, number of up-regulated genes [1]: 3
Lipid metabolism: No. (regulated genes/genes of function) [1]: 18/109
MAPK signaling: % of genes regulated [1]: 10.6%
MAPK signaling: D, number of down-regulated genes [1]: 17
MAPK signaling: I, number of up-regulated genes [1]: 7
MAPK signaling: No. (regulated genes/genes of pathway) [1]: 24/227
PPAR signaling pathway: % of genes regulated [1]: 37.8%
PPAR signaling pathway: D, number of down-regulated genes [1]: 14
PPAR signaling pathway: I, number of up-regulated genes [1]: 14
PPAR signaling pathway: No. (regulated genes/genes of pathway) [1]: 28/74
TGF-β signaling pathway: % of genes regulated [1]: 11.1%
TGF-β signaling pathway: D, number of down-regulated genes [1]: 2
TGF-β signaling pathway: I, number of up-regulated genes [1]: 3
TGF-β signaling pathway: No. (regulated genes/genes of pathway) [1]: 5/45
VEGF signaling pathway: % of genes regulated [1]: 6.5%
VEGF signaling pathway: D, number of down-regulated genes [1]: 0
VEGF signaling pathway: I, number of up-regulated genes [1]: 2
VEGF signaling pathway: No. (regulated genes/genes of pathway) [1]: 2/31
Wnt signaling pathway: % of genes regulated [1]: 10.6%
Wnt signaling pathway: D, number of down-regulated genes [1]: 5
Wnt signaling pathway: I, number of up-regulated genes [1]: 2
Wnt signaling pathway: No. (regulated genes/genes of pathway) [1]: 7/66
focal adhesion: % of genes regulated [1]: 11%
focal adhesion: D, number of down-regulated genes [1]: 16
focal adhesion: I, number of up-regulated genes [1]: 3
focal adhesion: No. (regulated genes/genes of function) [1]: 19/173
tight junction: % of genes regulated [1]: 13.6%
tight junction: D, number of down-regulated genes [1]: 7
tight junction: I, number of up-regulated genes [1]: 2
tight junction: No. (regulated genes/genes of function) [1]: 9/66
Amino acid metabolism: % of genes regulated [2]: 8.7%
Amino acid metabolism: D, number of down-regulated genes [2]: 2
Amino acid metabolism: I, number of up-regulated genes [2]: 0
Amino acid metabolism: No. (regulated genes/genes of function) [2]: 2/23
Apoptosis: % of genes regulated [2]: 7.4%
Apoptosis: D, number of down-regulated genes [2]: 6
Apoptosis: I, number of up-regulated genes [2]: 1
Apoptosis: No. (regulated genes/genes of function) [2]: 7/94
Calcium signaling pathway: % of genes regulated [2]: 21.9%
Calcium signaling pathway: D, number of down-regulated genes [2]: 30
Calcium signaling pathway: I, number of up-regulated genes [2]: 2
Calcium signaling pathway: No. (regulated genes/genes of pathway) [2]: 32/146
Cell adhesion molecules: % of genes regulated [2]: 22.7%
Cell adhesion molecules: D, number of down-regulated genes [2]: 21
Cell adhesion molecules: I, number of up-regulated genes [2]: 13
Cell adhesion molecules: No. (regulated genes/genes of function) [2]: 34/150
Cell communication: % of genes regulated [2]: 21.7%
Cell communication: D, number of down-regulated genes [2]: 18
Cell communication: I, number of up-regulated genes [2]: 2
Cell communication: No. (regulated genes/genes of function) [2]: 20/92
Cell cycle: % of genes regulated [2]: 3.7%
Cell cycle: D, number of down-regulated genes [2]: 6
Cell cycle: I, number of up-regulated genes [2]: 0
Cell cycle: No. (regulated genes/genes of function) [2]: 6/163
ECM-receptor interaction: % of genes regulated [2]: 25.7%
ECM-receptor interaction: D, number of down-regulated genes [2]: 16
ECM-receptor interaction: I, number of up-regulated genes [2]: 3
ECM-receptor interaction: No. (regulated genes/genes of pathway) [2]: 19/74
Insulin signaling pathway: % of genes regulated [2]: 4.9%
Insulin signaling pathway: D, number of down-regulated genes [2]: 3
Insulin signaling pathway: I, number of up-regulated genes [2]: 2
Insulin signaling pathway: No. (regulated genes/genes of pathway) [2]: 5/102
JAK-STAT signaling pathway: % of genes regulated [2]: 25%
JAK-STAT signaling pathway: D, number of down-regulated genes [2]: 27
JAK-STAT signaling pathway: I, number of up-regulated genes [2]: 8
JAK-STAT signaling pathway: No. (regulated genes/genes of pathway) [2]: 35/140
Lipid metabolism: % of genes regulated [2]: 12.8%
Lipid metabolism: D, number of down-regulated genes [2]: 12
Lipid metabolism: I, number of up-regulated genes [2]: 2
Lipid metabolism: No. (regulated genes/genes of function) [2]: 10/109
MAPK signaling: % of genes regulated [2]: 10.6%
MAPK signaling: D, number of down-regulated genes [2]: 19
MAPK signaling: I, number of up-regulated genes [2]: 5
MAPK signaling: No. (regulated genes/genes of pathway) [2]: 24/227
PPAR signaling pathway: % of genes regulated [2]: 36.5%
PPAR signaling pathway: D, number of down-regulated genes [2]: 14
PPAR signaling pathway: I, number of up-regulated genes [2]: 12
PPAR signaling pathway: No. (regulated genes/genes of pathway) [2]: 27/74
TGF-β signaling pathway: % of genes regulated [2]: 13.3%
TGF-β signaling pathway: D, number of down-regulated genes [2]: 1
TGF-β signaling pathway: I, number of up-regulated genes [2]: 5
TGF-β signaling pathway: No. (regulated genes/genes of pathway) [2]: 6/45
VEGF signaling pathway: % of genes regulated [2]: 0%
VEGF signaling pathway: D, number of down-regulated genes [2]: 0
VEGF signaling pathway: I, number of up-regulated genes [2]: 0
VEGF signaling pathway: No. (regulated genes/genes of pathway) [2]: 0/31
Wnt signaling pathway: % of genes regulated [2]: 9.1%
Wnt signaling pathway: D, number of down-regulated genes [2]: 6
Wnt signaling pathway: I, number of up-regulated genes [2]: 0
Wnt signaling pathway: No. (regulated genes/genes of pathway) [2]: 6/66
focal adhesion: % of genes regulated [2]: 12.7%
focal adhesion: D, number of down-regulated genes [2]: 20
focal adhesion: I, number of up-regulated genes [2]: 2
focal adhesion: No. (regulated genes/genes of function) [2]: 22/173
tight junction: % of genes regulated [2]: 16.7%
tight junction: D, number of down-regulated genes [2]: 9
tight junction: I, number of up-regulated genes [2]: 2
tight junction: No. (regulated genes/genes of function) [2]: 11/66
pathways of the genes significantly regulated (ES cells cultured with the BP-containing medium, result in words): majorly involved in the PPAR, ECM-receptor interaction, and/or Jak-Stat signaling pathways
